Like-named read-outs stand apart in the source and are kept apart here.
Tests used:
[1] = target: CDK4/cyclin D1 (Homo sapiens (Human), UniProt P11802); test: CDK4/cyclin D1 enzymatic activity assay (TR-FRET, phosphorylation of pRb at Ser780); assay type: biochemical
Summary of the method: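 Phosphorylation at pRb Ser780, detected by TR-FRET, gave IC50s and kinetics. Enzyme: baculovirus/Sf21-expressed human CDK4/cyclin D1. ATP at 3 μM initiated the reaction; EDTA (pH 8.0) stopped it after 60 min at 22° C.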

[2] = tested on: phosphorylation of pRb at the Ser780 site in JeKo-1 mantle cell lymphoma cells; test: CDK4 cellular assay: ELISA of pRb phosphorylation at Ser780 in JeKo-1 cells; assay type: cell-based
[3] = target: CDK1/cyclin B (Homo sapiens (Human), UniProt P06493); test: CDK1/cyclin B enzymatic activity assay (IMAP-FP); assay type: biochemical
Chain of CDK1/cyclin B (P06493 whole entry, species assumed): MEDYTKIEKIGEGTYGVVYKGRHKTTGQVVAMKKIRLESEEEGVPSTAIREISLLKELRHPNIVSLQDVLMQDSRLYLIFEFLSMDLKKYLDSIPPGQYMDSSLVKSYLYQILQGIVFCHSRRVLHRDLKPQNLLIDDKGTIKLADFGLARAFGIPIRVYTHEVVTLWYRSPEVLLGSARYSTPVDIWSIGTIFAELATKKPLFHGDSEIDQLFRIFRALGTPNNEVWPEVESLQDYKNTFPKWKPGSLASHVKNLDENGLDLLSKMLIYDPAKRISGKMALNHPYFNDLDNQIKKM
Chain of CDK1/cyclin B (P14635 whole entry partner, species assumed): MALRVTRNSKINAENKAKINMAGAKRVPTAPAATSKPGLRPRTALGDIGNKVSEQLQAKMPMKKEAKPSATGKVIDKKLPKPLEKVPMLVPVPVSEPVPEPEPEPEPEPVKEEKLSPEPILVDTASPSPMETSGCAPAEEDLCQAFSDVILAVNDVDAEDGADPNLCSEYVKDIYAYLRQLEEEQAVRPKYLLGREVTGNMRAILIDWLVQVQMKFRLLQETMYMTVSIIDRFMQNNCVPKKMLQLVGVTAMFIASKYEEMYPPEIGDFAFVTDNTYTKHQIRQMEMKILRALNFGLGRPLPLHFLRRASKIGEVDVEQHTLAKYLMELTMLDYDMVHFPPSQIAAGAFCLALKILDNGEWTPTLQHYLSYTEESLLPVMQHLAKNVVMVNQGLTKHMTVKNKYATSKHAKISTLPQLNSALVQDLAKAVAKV
Excerpt: CDK1/Cyclin B Enzymatic Activity Assay
A 384-well microtiter IMAP-FP™ (Molecular Devices Trade Mark Technology) endpoint assay was used for CDK1/cyclin B kinase activity measurements. The same assay was used for IC50 determination of small molecule inhibitors.

[4] = 0.3 nM CDK4/cyclin D1, 150 nM biotin-pRb (773-924), 3 μM ATP, 60 min at 22° C., read-out: Biochemical CDK4 enzyme IC50
[5] = Homo sapiens, JeKo-1, JeKo-1 cells, p-pRb % inhibition adjusted with total pRb levels, read-out: Normalized cellular ppRb inhibition IC50
[6] = Homo sapiens, JeKo-1, JeKo-1 cells, p-pRb Ser780 ELISA, non-normalized, read-out: Cellular ppRb inhibition IC50
[7] = Homo sapiens, JeKo-1 cells, p-pRb % inhibition adjusted with total pRb levels, read-out: Normalized cellular ppRb inhibition IC50
[8] = Homo sapiens, JeKo-1 cells, p-pRb Ser780 ELISA, non-normalized, read-out: Cellular ppRb inhibition IC50
[9] = […] CDK1/cyclin B, 100 nM Tamra Histone-H1 peptide, 20 μM ATP, 120 min at room temperature, read-out: Biochemical CDK1 enzyme IC50

Chain of CDK4/cyclin D1 (P11802 whole entry): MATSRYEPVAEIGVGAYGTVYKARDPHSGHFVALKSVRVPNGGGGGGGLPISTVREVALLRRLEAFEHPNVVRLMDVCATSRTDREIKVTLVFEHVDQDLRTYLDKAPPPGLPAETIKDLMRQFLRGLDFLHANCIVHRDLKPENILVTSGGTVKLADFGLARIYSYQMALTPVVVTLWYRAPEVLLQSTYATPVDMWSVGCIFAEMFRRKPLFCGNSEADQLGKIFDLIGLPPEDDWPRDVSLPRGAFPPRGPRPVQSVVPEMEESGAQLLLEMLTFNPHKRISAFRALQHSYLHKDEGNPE
Chain of CDK4/cyclin D1 (P24385 whole entry partner): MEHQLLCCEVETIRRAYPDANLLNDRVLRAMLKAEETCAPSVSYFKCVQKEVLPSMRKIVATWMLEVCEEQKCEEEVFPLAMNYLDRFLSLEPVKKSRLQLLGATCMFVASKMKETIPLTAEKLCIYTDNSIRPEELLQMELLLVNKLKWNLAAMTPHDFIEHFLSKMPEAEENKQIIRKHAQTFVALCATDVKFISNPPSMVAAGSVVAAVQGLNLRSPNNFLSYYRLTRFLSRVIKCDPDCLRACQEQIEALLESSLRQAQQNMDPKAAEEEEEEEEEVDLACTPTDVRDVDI

| SMILES | IC50 [1, 4] [nM] | IC50 [2, 5] [nM] | IC50 [2, 6] [nM] | IC50 [2, 7] [nM] | IC50 [2, 8] [nM] | IC50 [3, 9] [nM] | further results |
| --- | --- | --- | --- | --- | --- | --- | --- |
| [2H]C([2H])([2H])N1C2CCC1CN(C(=O)c1ccc(Nc3ncc4cc(C(=O)N(C)C)n(C5CCCC5)c4n3)nc1)C2 [Example 63, 7-Cyclopentyl-2-[5-(8-methyl-d3-3,8-diaza-bicyclo[3.2.1]octane-3-carbonyl)-pyridin-2-ylamino]-7H-pyrrolo[2,3-d]pyrimidine-6-carboxylic acid dimethylamide] | 11 to 24 | 40 to 242 | 34 to 78 |  |  |  | IC50 [3]: > 15000 nM |
| CCOC(=O)N1C2CCC1CN(C(=O)c1ccc(Nc3ncc4cc(C(=O)N(C)C)n(C5CCCC5)c4n3)nc1)C2 [Example 64, 3-[6-(7-Cyclopentyl-6-dimethylcarbamoyl-7H-pyrrolo[2,3-d]pyrimidin-2-ylamino)-pyridine-3-carbonyl]-3,8-diaza-bicyclo[3.2.1]octane-8-carboxylic acid ethyl ester] | 72 to 179 |  |  | 771 to 2200 | 323 to 466 | > 15000 |  |
| CN(C)C(=O)c1cc2cnc(Nc3ccc(C(=O)N4CC5CCC(C4)N5)cn3)nc2n1C1CCCOC1 (stereo not drawn) [Example 65, 2-(5-(3,8-diazabicyclo[3.2.1]octane-3-carbonyl)pyridin-2-ylamino)-N,N-dimethyl-7-(tetrahydro-2H-pyran-3-yl)-7H-pyrrolo[2,3-d]pyrimidine-6-carboxamide] | 76 |  |  | 132 to 458 | 126 to 211 | > 15000 |  |
| CN(C)C(=O)c1cc2cnc(Nc3ccc(C(=O)N4CC5CCC(C4)N5)cn3)nc2n1C1CCCCC1 [Example 66, 7-Cyclohexyl-2-[5-(3,8-diaza-bicyclo[3.2.1]octane-3-carbonyl)-pyridin-2-ylamino]-7H-pyrrolo[2,3-d]pyrimidine-6-carboxylic acid dimethylamide] | 4 to 7 | 41 | 38 |  |  | > 15000 |  |
| CN(C)C(=O)c1cc2cnc(Nc3ccc(C(=O)N4CC5CC4CN5)cn3)nc2n1C1CCCCC1 (stereo not drawn) [Example 67, 7-Cyclohexyl-2-[5-(2,5-diaza-bicyclo[2.2.1]heptane-2-carbonyl)-pyridin-2-ylamino]-7H-pyrrolo[2,3-d]pyrimidine-6-carboxylic acid dimethylamide] | 3 |  |  | 54 | 51 | 10400 |  |
| CN(C)C(=O)c1cc2cnc(Nc3ccc(C(=O)N4CC5COCC(C4)N5)cn3)nc2n1C1CCCC1 [Example 70, 7-Cyclopentyl-2-[5-(3-oxa-7,9-diaza-bicyclo[3.3.1]nonane-7-carbonyl)-pyridin-2-ylamino]-7H-pyrrolo[2,3-d]pyrimidine-6-carboxylic acid dimethylamide] | 39 |  |  | 180 | 117 | > 15000 |  |
| CN(C)C(=O)c1cc2cnc(Nc3ccc(C(=O)N4CC5CCC(C4)N5)nn3)nc2n1C1CCCC1 [Example 73, 7-Cyclopentyl-2-[6-(3,8-diaza-bicyclo[3.2.1]octane-3-carbonyl)-pyridazin-3-ylamino]-7H-pyrrolo[2,3-d]pyrimidine-6-carboxylic acid dimethylamide] |  |  |  |  |  | > 15000 | IC50 ([1]; read-out: Biochemical CDK4 enzyme IC50, 0.3 nM CDK4/cyclin D1, 150 nM biotin-pRb (773-924), 3 μM ATP, 60 min at 22° C.): 45 to 84 nM; IC50 ([2]; JeKo-1 cells, p-pRb % inhibition adjusted with total pRb levels, read-out: Normalized cellular ppRb inhibition IC50): 139 to 783 nM; IC50 ([2]; JeKo-1 cells, p-pRb Ser780 ELISA, non-normalized, read-out: Cellular ppRb inhibition IC50): 75 to 259 nM |
| CN(C)C(=O)c1cc2cnc(Nc3ccc(C(=O)N4CC5CCC(C4)O5)cn3)nc2n1C1CCCC1 [Example 74, 7-Cyclopentyl-2-[5-(8-oxa-3-aza-bicyclo[3.2.1]octane-3-carbonyl)-pyridin-2-ylamino]-7H-pyrrolo[2,3-d]pyrimidine-6-carboxylic acid dimethylamide] | 67 | 257 | 151 |  |  |  | IC50 ([3]; 0.25 nM CDK1/cyclin B, 100 nM Tamra Histone-H1 peptide, 20 μM ATP, 120 min at room temperature, read-out: Biochemical CDK1 enzyme IC50): > 15000 nM |
| CN(C)C(=O)c1cc2cnc(Nc3ccc(C(=O)N4CCC5COCC(C4)N5)cn3)nc2n1C1CCCC1 (stereo not drawn) [Example 75, 7-Cyclopentyl-2-[5-(8-oxa-3,10-diaza-bicyclo[4.3.1]decane-3-carbonyl)-pyridin-2-ylamino]-7H-pyrrolo[2,3-d]pyrimidine-6-carboxylic acid dimethylamide] |  | 525 | 81 |  |  |  | IC50 [1]: 47 nM; IC50 [3]: > 15000 nM |
